Assay results: US10828331B2, “Cellular compositions used to restore stem cell or progenitor cell function and methods related thereto” (Emory University, priority 2012, dated 2020)

Experiments:
[1] = system: mouse neural progenitors and mouse embryonic fibroblasts; conditions: in combination with two factors (Oct4 and Klf4); cited from earlier work
diabetic MSCs = experiment: real-time RT-PCR of angiogenic genes in compound-treated diabetic MSCs; assay type: cell-based, rat; conditions: D-MSCs treated with epigenetic compounds for 7 days, FIG. 1
Method: To reprogram diabetic MSCs with epigenetic compounds, cultured D-MSCs were treated with HDAC inhibitor: Vorinostat or suberoylanilide hydroxamic acid (SAHA); DNA methyltransferase inhibitor: Decitabine (trade name Dacogen), or 5-aza-2′-deoxycytidine (5-aza); multiple histone 3 lysine 9 (H3K9) methyltransferases G9a and GLP inhibitor: BIX-01294; and GSK3β inhibitor: CHIR99021 for 7 more days. N-MSCs and D-MSCs were cultured by a standard MSC culture method. The cultured MSCs are typically reseeded at day 4 and cultured for another 4 days. To examine the expression levels of angiogenic genes, we isolated RNAs from N-, D-, or epigenetic compound treated reprogrammed D-MSCs (RD-MSCs), and performed real-time RT-PCR with specific primers of angiogenic genes.
Diabetes was induced in 8 week-old male Fischer 344 rats by intravenous injection of streptozotocin ([…]). Blood glucose levels were measured using an Accu-Check glucometer (Roche, Indianapolis, Ind.) after one week and two months. […]
Gene expression was determined by TaqMan® real-time quantitative PCR on the 7300 Sequence Detection System (Applied Biosystems) using TaqMan® PCR Master Mix (Applied Biosystems). […] Relative mRNA expression of target gene normalized to GAPDH was calculated by using the formula Relative Expression Level=2−ΔCt, where ΔCt=Ct gene of interest−Ct GAPDH. […]

Row | Structure (SMILES) | reprogramming efficiency [1] | expression of major angiogenic genes (diabetic MSCs)
1 | COc1cc2nc(N3CCCN(C)CC3)nc(NC3CCN(Cc4ccccc4)CC3)c2cc1OC [BIX01294] | enhanced the reprogramming efficiency | 
2 | COC(=O)C1=C(C)NC(C)=C([N+](=O)[O-])C1c1ccccc1C(F)(F)F (stereo not drawn) [BayK8644, 1,4-dihydro-2,6-dimethyl-5-nitro-4-[2-(trifluoromethyl)phenyl]-3-pyridinecarboxylic acid, methyl ester] | enhanced the reprogramming efficiency | 
3 | O=C(CCCCCCC(=O)Nc1ccccc1)NO [SAHA, suberoylanilide hydroxamic acid] |  | significant increased pattern in most of genes
